Laboratory results reported in ChEMBL document CHEMBL1122400, “A deuterium isotope effect on the inhibition of gastric secretion by N,N-dimethyl-N'-[2-(diisopropylamino)ethyl]-N'-(4,6-dimethyl-2-pyridyl)urea. Synthesis of metabolites” (1983).

Each compound was assayed on Canis familiaris (assay: Inhibition of gastric acid secretion in dogs stimulated by gastrin tetrapeptide when administered perorally). Conditions: Canis lupus familiaris, Stomach, po.
Type: functional

SMILES	ED50
Cc1cc(CO)nc(N(CCN(C(C)C)C(C)C)C(=O)N(C)C)c1	29.4 µmol/kg
Cc1cc(C)nc(N(CCN(C(C)C)C(C)C)C(=O)N(C)C)c1	15.3 µmol/kg
Cc1cc(CO)cc(N(CCN(C(C)C)C(C)C)C(=O)N(C)C)n1	23.3 µmol/kg
CN/C(=N\CCSCc1nc[nH]c1C)NC#N [CIMETIDINE]	14.3 µmol/kg
CC(C)N(CCN(C(=O)N(C)C)c1cc(C(F)(F)F)cc(C(F)(F)F)n1)C(C)C	43.9 µmol/kg
[2H]C([2H])([2H])c1cc(C)nc(N(CCN(C(C)C)C(C)C)C(=O)N(C)C)c1	7.26 µmol/kg
